The target of the experiment is T1, TLR9 (Homo sapiens, UniProt Q9NR96).
T1 sequence (Q9NR96 26-1032): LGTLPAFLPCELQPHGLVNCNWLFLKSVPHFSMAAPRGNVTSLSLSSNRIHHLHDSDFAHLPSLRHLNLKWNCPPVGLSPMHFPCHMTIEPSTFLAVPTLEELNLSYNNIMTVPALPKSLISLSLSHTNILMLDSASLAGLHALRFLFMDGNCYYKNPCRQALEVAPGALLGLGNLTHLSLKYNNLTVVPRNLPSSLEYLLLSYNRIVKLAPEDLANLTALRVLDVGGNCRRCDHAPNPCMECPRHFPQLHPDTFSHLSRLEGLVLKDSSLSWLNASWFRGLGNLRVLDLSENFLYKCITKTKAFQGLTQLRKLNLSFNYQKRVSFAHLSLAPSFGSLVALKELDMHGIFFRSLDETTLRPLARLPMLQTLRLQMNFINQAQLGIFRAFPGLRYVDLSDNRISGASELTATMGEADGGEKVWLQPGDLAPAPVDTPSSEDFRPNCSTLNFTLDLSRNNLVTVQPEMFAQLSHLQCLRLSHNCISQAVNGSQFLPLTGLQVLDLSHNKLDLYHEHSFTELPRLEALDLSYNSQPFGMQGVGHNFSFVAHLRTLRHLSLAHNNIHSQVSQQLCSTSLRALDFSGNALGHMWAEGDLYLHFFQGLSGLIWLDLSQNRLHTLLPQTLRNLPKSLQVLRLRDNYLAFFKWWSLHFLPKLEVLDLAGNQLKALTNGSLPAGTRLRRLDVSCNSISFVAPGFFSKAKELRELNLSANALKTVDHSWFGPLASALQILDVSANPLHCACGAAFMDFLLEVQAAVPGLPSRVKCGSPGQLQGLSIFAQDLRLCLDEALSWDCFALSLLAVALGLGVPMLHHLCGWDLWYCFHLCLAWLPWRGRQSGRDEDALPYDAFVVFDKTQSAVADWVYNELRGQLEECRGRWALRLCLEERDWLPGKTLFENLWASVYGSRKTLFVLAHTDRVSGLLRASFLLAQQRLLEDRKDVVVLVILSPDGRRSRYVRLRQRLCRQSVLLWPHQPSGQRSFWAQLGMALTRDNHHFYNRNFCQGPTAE
The experiment in a line: HEK293-Blue-hTLR-9 cells assay. As to conditions: HEK293-Blue-hTLR9 cells, ODN2006 stimulation, 20 hrs, SEAP reporter; read-out: HEK/hTLR9 IC50. Also noted: host or cells: HEK293 (HEK-Blue hTLR9). In kind it is cell-based. The text has this: A stable HEK293-Blue-hTLR-9 cell line was purchased from InvivoGen (Cat.#: hkb-htlr9, San Diego, California, USA). These cells were originally designed for studying the stimulation of human TLR9 by monitoring the activation of NF-κB. A SEAP (secreted embryonic alkaline phosphatase) reporter gene was placed under the control of the IFN-β minimal promoter fused to five NF-κB and AP-1-binding sites. The SEAP was induced by activating NF-κB and AP-1 via stimulating HEK-Blue hTLR9 cells with TLR9 ligands. Therefore the reporter expression was declined by TLR9 antagonist under the stimulation of a ligand, such as ODN2006 (Cat.#: tlrl-2006-1, Invivogen, San Diego, California, USA), for incubation of 20 hrs. The cell culture supernatant SEAP reporter activity was determined using QUANTI-Blue™ kit (Cat.#: rep-qb1, Invivogen, San Diego, California, USA) at a wavelength of 640 nm, a detection medium that turns purple or blue in the presence of alkaline phosphatase.
HEK293-Blue-hTLR9 cells were incubated at a density of 250,000~450,000 cells/mL in a volume of 170 µL in a 96-well plate in Dulbecco’s Modified Eagle’s medium (DMEM) containing 4.5 g/L glucose, 50 U/mL penicillin, […], […], 2 mM L-glutamine, 10% (v/v) heat-inactivated fetal bovine serum with addition of 20 µL test compound in a serial dilution in the presence of final DMSO at 1% and 10 µL of 20uM ODN2006 in above DMEM, perform incubation under 37° C. in a CO2 incubator for 20 hrs. Then 20 µL of the supernatant from each well was incubated with 180 µL Quanti-blue substrate solution at 37° C. for 2 h and the absorbance was read at 620 \~655 nm using a spectrophotometer. The signaling pathway that TLR9 activation leads to downstream NF-κB activation has been widely accepted, and therefore similar reporter assay was modified for evaluating TLR9 antagonist.
As for `Cc1cc(-c2ccc(N3CCN(Cc4cnc(N5CCNCC5)cn4)CC3)nc2C(C)C)cn(C)c1=O` [Example 8, 5-[2-isopropyl-6-[4-[(5-piperazin-1-ylpyrazin-2-yl)methyl]piperazin-1-yl]-3-pyridyl]-1,3-dimethyl-pyridin-2-one], the IC50 stood at 176 nM.

For the compound `CCc1nc(N2CCN3CCN(c4cnc(N5CC6(CNCCO6)C5)nc4)CC3C2)ccc1-c1cc(C)c(=O)n(C)c1` (stereo not shown) [Example 19, 5-[2-ethyl-6-[2-[2-(5-oxa-2,8-diazaspiro[3.5]nonan-2-yl)pyrimidin-5-yl]-3,4,6,7,9,9a-hexahydro-1H-pyrazino[1,2-a]pyrazin-8-yl]-3-pyridyl]-1,3-dimethyl-pyridin-2-one], the IC50 was 833 nM.

Consider `Cc1cc(-c2ccc(N3CCN(c4ccc5c(n4)CCNC5)CC3)nc2C(C)C)cn(C)c1=O` [Example 15, 5-[2-isopropyl-6-[4-(5,6,7,8-tetrahydro-1,6-naphthyridin-2-yl)piperazin-1-yl]-3-pyridyl]-1,3-dimethyl-pyridin-2-one], for which the IC50 stood at 803 nM.

As for `CCc1nc(N2CCN(Cc3ccc(N4CC5(CNCCO5)C4)nc3)CC2)ccc1-c1cc(C)c(=O)n(C)c1` [Example 2, 5-[2-ethyl-6-[4-[[6-(5-oxa-2,8-diazaspiro[3.5]nonan-2-yl)-3 pyridyl]methyl]piperazin-1-yl]-3-pyridyl]-1,3-dimethyl-pyridin-2-one], the IC50 worked out at 212 nM.

For `Cc1cc(-c2ccc(N3CCN(Cc4cnc(N5CC6(CNCCO6)C5)nc4)CC3)nc2C(C)C)cn(C)c1=O` [Example 6, 5-[2-isopropyl-6-[4-[[2-(5-oxa-2,8-diazaspiro[3.5]nonan-2-yl)pyrimidin-5-yl]methyl]piperazin-1-yl]-3-pyridyl]-1,3-dimethyl-pyridin-2-one], the IC50 was determined as 198 nM.

Take `CCc1nc(N2CCN(Cc3cnc(N4CC(C)(N)C4)nc3)CC2)ccc1-c1cc(C)c(=O)n(C)c1` [Example 3, 5-[6-[4-[[2-(3-amino-3-methyl-azetidin-1-yl)pyrimidin-5-yl]methyl]piperazin-1-yl]-2-ethyl-3-pyridyl]-1,3-dimethyl-pyridin-2-one]: the IC50 turned out to be 621 nM.

As for `CCc1nc(N2CCN(Cc3ccc(N4CCNCC4)cc3)CC2)ccc1-c1cc(C)c(=O)n(C)c1` [Example 5, 5-[2-ethyl-6-[4-[(4-piperazin-1-ylphenyl)methyl]piperazin-1-yl]-3-pyridyl]-1,3-dimethyl-pyridin-2-one], the IC50 was 54 nM.

Turning to `Cc1cc(-c2ccc(N3CCN(Cc4ncc(N5CCNCC5)cn4)CC3)nc2C(C)C)cn(C)c1=O` [Example 12, 5-[2-isopropyl-6-[4-[(5-piperazin-1-ylpyrimidin-2-yl)methyl]piperazin-1-yl]-3-pyridyl]-1,3-dimethyl-pyridin-2-one], the IC50 amounted to 763 nM.

For `Cc1cc(-c2ccc(N3CCN(Cc4ccc(N5CCNCC5)cc4)CC3)nc2C(F)F)cn(C)c1=O` [Example 17, 5-[2-(difluoromethyl)-6-[4-[(4-piperazin-1-ylphenyl)methyl]piperazin-1-yl]-3-pyridyl]-1,3-dimethyl-pyridin-2-one], the IC50 came to 68 nM.

In the case of `CCc1nc(N2CCN(Cc3cnc(N4CCOC[C@@H](N)C4)nc3)CC2)ccc1-c1cc(C)c(=O)n(C)c1` [Example 4, 5-[6-[4-[[2-[(6S)-6-amino-1,4-oxazepan-4-yl]pyrimidin-5-yl]methyl]piperazin-1-yl]-2-ethyl-3-pyridyl]-1,3-dimethyl-pyridin-2-one], the IC50 turned out to be 318 nM.

As for `Cc1cc(-c2ccc(N3CCN(Cc4ccc(N5CCNCC5)cn4)CC3)nc2C(C)C)cn(C)c1=O` [Example 7, 5-[2-isopropyl-6-[4-[(5-piperazin-1-yl-2-pyridyl)methyl]piperazin-1-yl]-3-pyridyl]-1,3-dimethyl-pyridin-2-one], the IC50 came out at 143 nM.

For `Cc1cc(-c2ccc(N3CCC(N4CCNCC4)CC3)nc2C(C)C)cn(C)c1=O` [Example 18, 5-[2-isopropyl-6-(4-piperazin-1-yl-1-piperidyl)-3-pyridyl]-1,3-dimethyl-pyridin-2-one], the IC50 is 798 nM.

As for `CCc1nc(N2CCN(Cc3cnc(N4CC5(CNCCO5)C4)nc3)CC2)ccc1-c1cc(C)c(=O)n(C)c1` [Example 1, 5-[2-ethyl-6-[4-[[2-(5-oxa-2,8-diazaspiro[3.5]nonan-2-yl)pyrimidin-5-yl]methyl]piperazin-1-yl]-3-pyridyl]-1,3-dimethyl-pyridin-2-one], the IC50 was found to be 700 nM.

In the case of `Cc1cc(-c2ccc(N3CCN(Cc4cccc(N5CCNCC5)c4)CC3)nc2C(C)C)cn(C)c1=O` [Example 14, 5-[2-isopropyl-6-[4-[(3-piperazin-1-ylphenyl)methyl]piperazin-1-yl]-3-pyridyl]-1,3-dimethyl-pyridin-2-one], the IC50 turned out to be 143 nM.

In the case of `Cc1cc(-c2ccc(N3CCN4CCN(c5ccc(N6CCNCC6)nc5)CC4C3)nc2C(C)C)cn(C)c1=O` (stereo not shown) [Example 16, 5-[2-isopropyl-6-[8-(6-piperazin-1-yl-3-pyridyl)-3,4,6,7,9,9a-hexahydro-1H-pyrazino[1,2-a]pyrazin-2-yl]-3-pyridyl]-1,3-dimethyl-pyridin-2-one], the IC50 worked out at 324 nM.

For the compound `Cc1cc(-c2ccc(N3CCN(Cc4cnc(N5CCNCC5)nc4)CC3)nc2C(C)C)cn(C)c1=O` [Example 9, 5-[2-isopropyl-6-[4-[(2-piperazin-1-ylpyrimidin-5-yl)methyl]piperazin-1-yl]-3-pyridyl]-1,3-dimethyl-pyridin-2-one], the IC50 amounted to 183 nM.

In the case of `Cc1cc(-c2ccc(N3CCN(Cc4ccc(N5CCNCC5)cc4)CC3)nc2C(C)C)cn(C)c1=O` [Example 13, 5-[2-isopropyl-6-[4-[(4-piperazin-1-ylphenyl)methyl]piperazin-1-yl]-3-pyridyl]-1,3-dimethyl-pyridin-2-one], the IC50 is 111 nM.

With `Cc1cc(-c2ccc(N3CCN(Cc4ccc(N5CCNCC5)nc4)CC3)nc2C(C)C)cn(C)c1=O` [Example 11, 5-[2-isopropyl-6-[4-[(6-piperazin-1-yl-3-pyridyl)methyl]piperazin-1-yl]-3-pyridyl]-1,3-dimethyl-pyridin-2-one], the IC50 came out at 136 nM.

As to `Cc1cc(-c2ccc(N3CCN(Cc4cnc(N5CC(C)(N)C5)nc4)CC3)nc2C(C)C)cn(C)c1=O` [Example 10, 5-[6-[4-[[2-(3-amino-3-methyl-azetidin-1-yl)pyrimidin-5-yl]methyl]piperazin-1-yl]-2-isopropyl-3-pyridyl]-1,3-dimethyl-pyridin-2-one], the IC50 is 139 nM.

The values above are taken from patent US20230295109A1, “PYRIDINONE COMPOUNDS FOR THE TREATMENT OF AUTOIMMUNE DISEASE” (F. Hoffmann-La Roche AG, priority 2020, published 2023).
